Laboratory results from the Kinase Knowledgebase extract (Sharma et al. 2016).

These compounds were tested against EGFR (UniProt P00533).
Chain of EGFR (P00533 whole entry, looked up): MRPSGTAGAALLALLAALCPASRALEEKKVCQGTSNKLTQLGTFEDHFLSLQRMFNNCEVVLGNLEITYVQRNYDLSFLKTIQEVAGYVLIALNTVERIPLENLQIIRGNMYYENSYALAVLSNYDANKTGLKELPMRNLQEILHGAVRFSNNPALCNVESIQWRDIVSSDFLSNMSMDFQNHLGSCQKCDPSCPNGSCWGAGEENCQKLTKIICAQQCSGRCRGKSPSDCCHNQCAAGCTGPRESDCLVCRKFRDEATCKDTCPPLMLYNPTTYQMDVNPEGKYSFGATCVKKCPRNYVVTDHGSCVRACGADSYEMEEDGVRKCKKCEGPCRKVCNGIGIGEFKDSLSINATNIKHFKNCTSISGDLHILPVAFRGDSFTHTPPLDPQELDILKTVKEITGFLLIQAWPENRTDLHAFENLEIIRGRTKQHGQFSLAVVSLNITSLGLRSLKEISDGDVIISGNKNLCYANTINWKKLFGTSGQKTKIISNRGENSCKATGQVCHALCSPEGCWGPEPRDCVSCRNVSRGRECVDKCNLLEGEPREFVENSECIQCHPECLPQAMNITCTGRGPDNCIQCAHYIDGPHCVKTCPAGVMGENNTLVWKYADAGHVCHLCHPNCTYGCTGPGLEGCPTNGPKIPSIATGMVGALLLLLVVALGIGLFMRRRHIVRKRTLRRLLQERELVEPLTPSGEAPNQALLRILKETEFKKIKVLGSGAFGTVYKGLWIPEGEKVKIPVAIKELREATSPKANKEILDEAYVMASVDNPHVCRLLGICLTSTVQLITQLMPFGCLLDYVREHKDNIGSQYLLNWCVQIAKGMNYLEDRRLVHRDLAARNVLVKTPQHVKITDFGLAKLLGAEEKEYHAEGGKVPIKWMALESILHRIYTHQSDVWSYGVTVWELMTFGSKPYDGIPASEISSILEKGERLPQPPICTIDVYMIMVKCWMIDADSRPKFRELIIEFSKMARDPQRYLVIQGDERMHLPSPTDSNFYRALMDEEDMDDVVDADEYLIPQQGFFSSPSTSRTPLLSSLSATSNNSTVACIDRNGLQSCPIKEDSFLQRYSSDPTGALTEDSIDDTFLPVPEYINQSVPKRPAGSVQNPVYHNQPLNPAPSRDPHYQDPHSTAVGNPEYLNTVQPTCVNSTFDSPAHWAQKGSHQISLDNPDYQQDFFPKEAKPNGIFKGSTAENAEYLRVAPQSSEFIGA
Work on `COCCN1CCC(Nc2ccc3c(c2)/C(=C(\c2ccccc2)c2ncc[nH]2)C(=O)N3)CC1` yielded an IC50 of over 5000 nM. Compound `CCN1CCC(Nc2ccc3c(c2)/C(=C(/c2cc(F)cc(F)c2)c2nc4cc(F)ccc4[nH]2)C(=O)N3)CC1` has an IC50 of over 5000 nM. In the case of `COCCN1CCC(Nc2ccc3c(c2)/C(=C(\c2cc(F)cc(F)c2)c2ncc[nH]2)C(=O)N3)CC1`, the IC50 is reported as 50 to 500 nM. In the case of `CS(=O)(=O)N1CCC(Nc2ccc3c(c2)/C(=C(\c2ccccc2)c2nc4ccccc4[nH]2)C(=O)N3)CC1`, the IC50 is reported as 500 to 5000 nM. `CN(C)CCN1CCC(Nc2ccc3c(c2)/C(=C(\c2ccccc2)c2nc4ccccc4[nH]2)C(=O)N3)CC1` showed an IC50 of 500 to 5000 nM. `CCN1CCC(Nc2ccc3c(c2)/C(=C(\c2ccc(C(F)(F)F)cc2)c2ncc[nH]2)C(=O)N3)CC1` showed an IC50 of 500 to 5000 nM. `CCN1CCC(Nc2ccc3c(c2)/C(=C(\c2ccc(F)cc2)c2ncc[nH]2)C(=O)N3)CC1` gave an IC50 of 500 to 5000 nM. Compound `CCN1CCC(Nc2ccc3c(c2)/C(=C(/c2ncc[nH]2)c2cc(F)c(Cl)cc2Cl)C(=O)N3)CC1` has an IC50 of 50 to 500 nM. `COCCN1CCC(Nc2ccc3c(c2)/C(=C(\c2ccc(C(F)(F)F)nc2)c2ncc[nH]2)C(=O)N3)CC1` gave an IC50 of over 5000 nM. `CCN1CCC(Nc2ccc3c(c2)/C(=C(\c2ccc(Cl)cc2)c2nc(C)c[nH]2)C(=O)N3)CC1` was tested, and the IC50 was 50 to 500 nM. For `CCN1CCC(Nc2ccc3c(c2)/C(=C(\c2ccc(C)cc2)c2ncc[nH]2)C(=O)N3)CC1`, the IC50 was 50 to 500 nM. For `O=C1Nc2ccc(NC3CCN(CCN4CCCCC4)CC3)cc2/C1=C(\c1cccc(F)c1)c1ncc[nH]1`, the IC50 was over 5000 nM. Compound `O=C1Nc2ccc(NC3CCNCC3)cc2/C1=C(\c1ccccc1)c1nc2ccccc2[nH]1` has an IC50 of 500 to 5000 nM. `COCCN1CCC(Nc2ccc3c(c2)/C(=C(\c2ccc(C)c(F)c2)c2nc(C)c[nH]2)C(=O)N3)CC1` was tested, and the IC50 was under 50 nM. With `COCCN1CCC(Nc2ccc3c(c2)/C(=C(\c2ccccc2)c2nc4ccccc4[nH]2)C(=O)N3)CC1` the IC50 was 50 to 500 nM. `COCCN1CCC(Nc2ccc3c(c2)/C(=C(\c2ccc(Cl)cc2)c2ncc[nH]2)C(=O)N3)CC1` showed an IC50 of over 5000 nM. `CCN1CCC(Oc2ccc3c(c2)/C(=C(\c2cccc(OC)c2)c2nc4ccccc4[nH]2)C(=O)N3)CC1` gave an IC50 of 500 to 5000 nM. `COCCN1CCC(Nc2ccc3c(c2)/C(=C(\c2ccc(C)cc2)c2ncc[nH]2)C(=O)N3)CC1` was tested, and the IC50 was 50 to 500 nM. `CCN1CCC(Nc2ccc3c(c2)/C(=C(\c2ccc(N)cc2)c2nc4ccccc4[nH]2)C(=O)N3)CC1` showed an IC50 of 50 to 500 nM. Compound `CCN1CCC(Nc2ccc3c(c2)/C(=C(\c2cccc(C#N)c2)c2nc4ccccc4[nH]2)C(=O)N3)CC1` has an IC50 of 500 to 5000 nM. With `CCN1CCC(Nc2ccc3c(c2)/C(=C(/c2nc(C)c[nH]2)c2ccc(F)cc2F)C(=O)N3)CC1` the IC50 was 50 to 500 nM. In the case of `CC1(C)CC(Nc2ccc3c(c2)/C(=C(\c2ccccc2)c2nc4ccccc4[nH]2)C(=O)N3)CC(C)(C)N1`, the IC50 is reported as 500 to 5000 nM.
